The text below walks through data of ChEMBL document CHEMBL1201862, “PubChem BioAssay data set” (2004).

Holding throughout (test): inhibition of tumour cell growth, NCI panel, 48 h
Test [1] has as its system NCI-H522.
Test [2] deals with HT-29.
In test [3] the test system is NCI-H23.
For test [4], the system named is KM12.
Test [5] concerns SW-620.
For test [6], the system named is RXF 393.
Test [7] relates to T47D.
For test [8], the system named is SF-295.
Test [9] concerns RPMI-8226.
Test [10] has as its system SNB-75.
Test [11] concerns SK-MEL-28.
Test [12] concerns OVCAR-8.
For test [13], the system named is 786-0.
Test [14] relates to EKVX.
Test [15] has as its system OVCAR-3.
Test [16] concerns UACC-62.
Test [17] deals with MDA-MB-435.
For test [18], the system named is HOP-92.
Test [19] deals with SK-MEL-5.
Test [20] relates to SNB-19.

Structures are written as SMILES.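 Exposure lasted 48 hours, with cells grown in 96-well plates and compounds tested at five concentrations. GI50: concentration for 50% inhibition of growth.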 The source made the active and inactive calls. No stated cut-off is given here; in the data, active = GI50 up to about 1.1 µM and inactive = higher.

On to `O=C(O)/C=C\C(=O)Nc1ccccn1`, for which the GI50 in test [1], in [2], in test [3], in test [4], in test [5] and in [6] was > 100 µM (inactive) throughout. The GI50 in test [7], in test [8], in test [9], in test [10], in test [11] and in test [12] was > 100 µM (inactive) in each case. Moreover, the GI50 in test [13], in [14], in test [15], in test [16], in test [17] and in [18] was > 100 µM (inactive) each time. Moreover, the GI50 in test [19] and in test [20] was > 100 µM (inactive) throughout.
Consider `O=C(O)CSCC(=O)Nc1ccc2cccc3c2c1CC3`, for which the GI50 in test [1], in test [2], in [3], in test [4], in [5] and in test [6] was > 100 µM (inactive) each time. Also, the GI50 in test [7], in test [8], in [9], in test [10], in test [11] and in test [12] was > 100 µM (inactive) each time. In addition, the GI50 in [13], in test [14], in test [15], in test [16], in test [17] and in [18] was > 100 µM (inactive) in each case. For the same compound, the GI50 in [19] and in [20] was > 100 µM (inactive) in each case.
`CC(=NNC(=S)Nc1ccccc1)c1cccc(C(C)=NNC(=S)Nc2ccccc2)n1`: the GI50 in test [1] is 5.35 µM (inactive); in [2], 2.34 µM (inactive); in [3] it was 7.46 µM (inactive); in test [4] it was 3.38 µM (inactive); in test [5] it was 3.66 µM (inactive); in test [6], 3.01 µM (inactive). For the same compound, the GI50 in [7] was 5.96 µM (inactive); in [8], 3.62 µM (inactive); in test [9], 2.83 µM (inactive); in [10], 10.8 µM (inactive); in test [11] it was > 100 µM (inactive); in [12], 0.968 µM (active). Also, the GI50 is 1.75 µM (inactive) in test [13]; 6.98 µM (inactive) in test [14]; 1.38 µM (inactive) in test [15]; 2.43 µM (inactive) in [16]; 8.32 µM (inactive) in test [17]; 2.25 µM (inactive) in test [18]. For the same compound, the results for the GI50 in [19] and in test [20] were 2.64 µM (inactive) and 19.3 µM (inactive), respectively.
For the compound `COc1ccc2c3c1OC1C(=O)C=CC4(O)C(C2)NCC[C@@]314` (stereo not given in full), the GI50 was 0.556 µM (active) in test [1]; 2.54 µM (inactive) in test [2]; 2.03 µM (inactive) in [3]; 2.84 µM (inactive) in test [4]; 1.11 µM (active) in test [5]; 1.39 µM (inactive) in [6]. Besides, the GI50 is 0.968 µM (active) in [7]; 3.69 µM (inactive) in [8]; 1.12 µM (inactive) in test [9]; 1.25 µM (inactive) in test [10]; 2.92 µM (inactive) in [11]; 1.69 µM (inactive) in test [12]. Moreover, the GI50 in test [13] was 1.58 µM (inactive); in [14], 2.3 µM (inactive); in [15], 1.52 µM (inactive); in test [16] it was 3.44 µM (inactive); in [17] it was 1.4 µM (inactive); in test [18], 5.26 µM (inactive). Further, the GI50 is 4.16 µM (inactive) in [19] and 5.55 µM (inactive) in test [20].
Take `COc1ncc(C#CC(=O)c2ccccc2)c(OC)n1`: the GI50 is 1.27 µM (inactive) in test [1]; 1.88 µM (inactive) in test [2]; 4.33 µM (inactive) in test [3]; 6.85 µM (inactive) in test [4]; 1.63 µM (inactive) in test [5]; 1.85 µM (inactive) in test [6]. Besides, the GI50 is 5.83 µM (inactive) in [7]; 16.6 µM (inactive) in test [8]; 2.33 µM (inactive) in [9]; 5.2 µM (inactive) in test [10]; 5.11 µM (inactive) in test [11]; 2.78 µM (inactive) in test [12]. In addition, the GI50 in [13] was 2.04 µM (inactive); in [14] it was 3.51 µM (inactive); in test [15], 5.11 µM (inactive); in [16] it was 4.03 µM (inactive); in [17], 3.91 µM (inactive); in [18], 2.15 µM (inactive). The results for the GI50 in test [19] and in test [20] were 2.09 µM (inactive) and 15.8 µM (inactive), respectively.
As for `CNCCCNc1c2ccccc2nc2cccc([N+](=O)[O-])c12`, the GI50 in [1] was 0.000449 µM (active); in [2] it was 0.00337 µM (active); in [3] it was 0.00193 µM (active); in [4] it was 0.0064 µM (active); in test [5] it was 0.00321 µM (active); in [6] it was 0.000346 µM (active). For the same compound, the GI50 in [7] was 0.00229 µM (active); in test [8] it was 0.0034 µM (active); in test [9], 0.00348 µM (active); in [10], 0.00438 µM (active); in test [11], 0.0109 µM (active); in [12] it was 0.00372 µM (active). Moreover, the GI50 in test [13] was 0.00323 µM (active); in [14], 0.00809 µM (active); in [15], 0.00449 µM (active); in test [16] it was 0.00468 µM (active); in test [17], 0.00166 µM (active); in [18], 0.00183 µM (active). The GI50 in test [19] is 0.00507 µM (active); in test [20], 0.00769 µM (active).
For the compound `COc1cc(-c2oc(/C=N/c3ccccc3)c([N+](=O)[O-])c2-c2ccc(O)c(OC)c2)ccc1O`, the GI50 is 12.5 µM (inactive) in [1]; 17.1 µM (inactive) in test [2]; 16.3 µM (inactive) in [3]; 21.7 µM (inactive) in test [4]; 22.9 µM (inactive) in test [5]; 22.8 µM (inactive) in test [6]. Also, the GI50 in [7] was 38.9 µM (inactive); in test [8], 31.6 µM (inactive); in test [9] it was 25.1 µM (inactive); in test [10], 11.5 µM (inactive); in [11], 19.5 µM (inactive); in test [12], 17.3 µM (inactive). For the same compound, the GI50 in [13] was 20.6 µM (inactive); in test [14], 25.8 µM (inactive); in [15], 35.4 µM (inactive); in [16], 17.9 µM (inactive); in test [17], 23.6 µM (inactive); in test [18], 13.8 µM (inactive). Also, the GI50 in test [19] is 23.7 µM (inactive); in test [20], 22.4 µM (inactive).
For the compound `CN(C)c1ccc(/C=C/C(=O)c2cc(C(C)(C)C)c(O)c(C(C)(C)C)c2)cc1`, the GI50 in test [1] was 0.482 µM (active); in test [2], 1.03 µM (active); in test [3], 2.07 µM (inactive); in test [4] it was 0.641 µM (active); in test [5], 0.986 µM (active); in test [6] it was 0.204 µM (active). The GI50 in test [7] is 4.06 µM (inactive); in [8], 0.43 µM (active); in test [9], 1.55 µM (inactive); in test [10], 0.579 µM (active); in test [11], > 60 µM (inactive); in test [12], 2.93 µM (inactive). Also, the GI50 in test [13] is 1.3 µM (inactive); in test [14], 0.583 µM (active); in test [15], 0.443 µM (active); in test [16], 0.637 µM (active); in test [17], 0.258 µM (active); in [18], > 100 µM (inactive). Further, the GI50 in test [19] is 0.774 µM (active); in test [20], 3.73 µM (inactive).
Regarding `O=C(O)C1=NN(c2ccc(S(=O)(=O)O)cc2)C2(C1)SCC(=O)N2c1nc2ccccc2s1` (stereo not given), the GI50 in [1], in test [2], in test [3], in test [4], in test [5] and in test [6] was > 100 µM (inactive) each time. For the same compound, the GI50 in [7], in test [8], in [9], in [10], in test [11] and in [12] was > 100 µM (inactive) each time. In addition, the GI50 in test [13], in [14], in test [15], in test [16], in test [17] and in [18] was > 100 µM (inactive) throughout. In addition, the GI50 in test [19] and in test [20] was > 100 µM (inactive) in each case.
In the case of `CC(O)C1(CNc2cc(Cl)nc(N)n2)CC(CCc2ccccc2)C1` (stereo not given), the GI50 is 8.41 µM (inactive) in [1]; 13 µM (inactive) in test [2]; 3.06 µM (inactive) in test [3]; 14.5 µM (inactive) in test [4]; 15.8 µM (inactive) in test [5]; 16.6 µM (inactive) in test [6]. Further, the GI50 in test [7] was 3.42 µM (inactive); in test [8], 14.4 µM (inactive); in [9], 11.6 µM (inactive); in test [10], 15.5 µM (inactive); in test [11], 14.3 µM (inactive); in test [12] it was 14.5 µM (inactive). For the same compound, the GI50 in test [13] is 18.2 µM (inactive); in test [14], 10.2 µM (inactive); in [15] it was 16.1 µM (inactive); in [16], 11.9 µM (inactive); in test [17], 13.7 µM (inactive); in test [18], 12.2 µM (inactive). In addition, the GI50 is 5.71 µM (inactive) in [19] and 15.8 µM (inactive) in test [20].
